Data from PMC5666381, “Rapid Assessment of the Toxicity of Fungal Compounds Using Luminescent Vibrio qinghaiensis sp. Q67” (Toxins, 2017).
In brackets after ≈: the same amount, converted by molar mass.

Columns and labels:
[1] = tested on: kidney cells; conditions: cited from earlier work; for IC50: read-out: IC50, cytotoxic effects, ref Bouslimi et al. (2008) [29]; for IC50, cytotoxic effects: value in brackets after the µM value, ref Bouslimi et al. (2008) [29]
[2] = tested on: Vibrio qinghaiensis sp. Q67; assay: microbe, parasite or virus in culture; type: cell-based; conditions: for IC50: Vibrio qinghaiensis, 0.25 h, read-out: IC50, luminescence inhibition of standard mycotoxins; for IC50 / IC50, luminescence inhibition of standard mycotoxins: V. qinghaiensis sp. Q67, 15 min exposure, 22 °C, 0.8% NaCl
[3] = tested on: Photobacterium phosphoreum; conditions: Photobacterium phosphoreum bioluminescence; cited from earlier work
[4] = tested on: mice; conditions: ref Kouadio et al. (2013) [14]; cited from earlier work
[5] = tested on: human promyelocytic leukemia cell line HL60; conditions: HL60 cells; ref Nagashima and Nakagawa (2014) [13]; cited from earlier work
[6] = tested on: V. fischeri; conditions: ref Menz et al. (2013) [25]; cited from earlier work
[7] = tested on: V. fischeri; conditions: cited from earlier work
[8] = tested on: Aliivibrio fischeri; conditions: cited from earlier work

CC1=C2C(=CO[C@H](C)[C@H]2C)C(O)=C(C(=O)O)C1=O [Citrinin]
IC50 [1]: 220 µM
IC50, cytotoxic effects [1]: 55.06 µg/mL (≈ 220 µM)
IC50 [2]: 12.23 ± 0.1 µg/mL (≈ 48.9 µM)
EC50 for toxic effects [3]: 20.05 µg/mL

CC1=C[C@H]2O[C@@H]3[C@H](O)C[C@](C)([C@@]2(CO)[C@H](O)C1=O)[C@]31CO1 [Deoxynivalenol]
no-observed-adverse-effect level (NOAEL) [4]: lower than 45 µg kg^−1 day^−1
IC50, luminescence inhibition of standard mycotoxins [2]: 30.74 ± 0.33 µg/mL
IC50, cell proliferation [5]: 0.36 µg/mL (≈ 1.21 µM)

CCCC[C@@H](C)[C@@H](OC(=O)C[C@@H](CC(=O)O)C(=O)O)[C@H](C[C@@H](C)C[C@H](O)CCCC[C@@H](O)C[C@H](O)[C@H](C)N)OC(=O)C[C@@H](CC(=O)O)C(=O)O [Fumonisin B1]
IC50, luminescence inhibition of standard mycotoxins [2]: 14.88 ± 0.14 µg/mL

C[C@@H]1Cc2c(Cl)cc(C(=O)N[C@@H](Cc3ccccc3)C(=O)O)c(O)c2C(=O)O1 [Ochratoxin A]
IC50 [1]: 50 µM
IC50, cytotoxic effects [1]: 20.15 µg/mL (≈ 49.9 µM)
IC50 [2]: 11.02 ± 0.1 µg/mL (≈ 27.3 µM)
EC50 for toxic effects [3]: 16.88 µg/mL

O=C1C=C2C(=CCOC2O)O1 (stereo not shown) [Patulin]
IC50 [2]: 13.3 ± 0.14 µg/mL (≈ 86.4 µM)

C[C@H]1CCCC(=O)CCC/C=C/c2cc(O)cc(O)c2C(=O)O1 [Zearalenone]
IC50 [2]: 9.71 ± 0.17 µg/mL (≈ 30.5 µM)
EC50 for toxic effects [3]: 13.51 µg/mL

O.O.O.O.O.O.O.O=S(=O)([O-])[O-].[Zn+2] [ZnSO4, Zinc sulfate heptahydrate]
IC50, luminescence inhibition by ZnSO4 ([2]; V. qinghaiensis Q67, reference substrate, 15 min): 7640 ± 420 µg/mL
IC50, inhibition of relative luminescence [6]: 26000 ± 3300 µg/mL

aflatoxin B1
EC50 [7]: 14.4 µg/mL
EC50 [8]: 23.3 µg/mL
